# Measurements from US9018224B2, “Substituted cyclopropyl compounds useful as GPR119 agonists” (Merck Sharp & Dohme Corp., priority 2011, dated 2015).
# pEC50: −log10 of the molar value.
# Biological target: T1, human GPR119 (Homo sapiens, UniProt Q8TDV5)
# T1 sequence (Q8TDV5 1-308 limits assumed): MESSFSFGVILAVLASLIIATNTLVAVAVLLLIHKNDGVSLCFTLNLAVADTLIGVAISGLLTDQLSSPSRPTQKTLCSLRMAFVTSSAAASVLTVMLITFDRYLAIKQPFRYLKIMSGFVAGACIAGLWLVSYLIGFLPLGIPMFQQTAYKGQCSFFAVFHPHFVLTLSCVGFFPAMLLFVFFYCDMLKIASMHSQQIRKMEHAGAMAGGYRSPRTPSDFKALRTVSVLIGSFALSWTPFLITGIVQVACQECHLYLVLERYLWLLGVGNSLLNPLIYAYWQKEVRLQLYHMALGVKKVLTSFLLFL
# Test: Measurement of GPR119 signaling by cAMP (LANCE cAMP kit or HTRF) in HEK293 cells transfected with human GPR119
# Assay type: cell-based
# Conditions: agonist cAMP response in HEK293 cells stably transfected with human GPR119; patent does not say which of the two cAMP formats (LANCE or HTRF)
# How it was run: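 LANCE TR-FRET cAMP readout; detection with Eu-SA/biotin-cAMP tracer for 3 h, signal converted to cAMP via standard curve, duplicates, 4-parameter fit vs DMSO basal and internal agonist maximum.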
row,SMILES,pEC50
1,O=C(Cc1ccc(OCC[C@@H]2C[C@@H]2C2CCN(c3ncc(Cl)cn3)CC2)cc1F)N1CCn2cc(C(F)(F)F)nc2C1 [Example 132],9.26
2,COCc1cnc(N2CCC([C@H]3C[C@H]3CCOc3ccc(CC(=O)N4CC(F)C4)cc3)CC2)nc1 [Example 11],8.54
3,"COCc1cnc(N2CCC([C@H]3C[C@H]3CCOc3cc(F)c(CC(=O)N4CCC4)c(F)c3)CC2)nc1 [Example 219, 1-(azetidin-1yl)-2-(2,6-difluoro-4-{2[(1S,2R)-2-{1-[5-(methoxylmethyl)pyrimidin-2yl]piperidin-4-yl}cyclopropyl]ethoxyl}phenyl)ethanone]",9.74
4,COCc1cnc(N2CCC([C@H]3C[C@H]3CCOc3cc(F)c(CC(=O)N4CC(OC)C4)c(F)c3)CC2)nc1 [Example 225],9.46
5,COCc1cnc(N2CCC([C@H]3C[C@H]3CCOc3ccc(CC(=O)N4CC(OC)C4)c(F)c3)CC2)nc1 [Example 45],9.09
6,COCc1cnc(N2CCC([C@H]3C[C@H]3CCOc3ccc(CC(=O)N4CC(F)C4)c(F)c3)CC2)nc1 [Example 43],9.27
7,"COCc1cnc(N2CCC([C@H]3C[C@H]3CCOc3cc(F)c(CC(=O)N4CC(O)C4)c(F)c3)CC2)nc1 [Example 218, 1-({2,6-difluoro-4-[2-((1S,2R)-2-{1-[5-(methoxymethyl)pyrimidin-2-yl]piperidin-4-yl}cyclopropyl)ethoxy]phenyl}acetyl)azetidin-3-ol]",8.80
8,COc1cnc(N2CCC([C@H]3C[C@H]3CCOc3cc(F)c(CC(=O)N(C)C)c(F)c3)CC2)nc1 [Example 213],9.64
9,CCOc1cnc(N2CCC([C@H]3C[C@H]3CCOc3cc(F)c(CC(=O)N4CC(O)C4)c(F)c3)CC2)nc1 [Example 232],9.26
10,COCc1cnc(N2CCC([C@H]3C[C@H]3CCOc3ccc(CC(=O)N4CCC4)c(C#N)c3)CC2)nc1 [Example 25],8.85
11,CCc1cnc(N2CCC([C@H]3C[C@H]3CCOc3ccc(CC(=O)N4CCC4)c(OC)c3)CC2)nc1 [Example 27],8.49
12,CC1c2nc(C(F)(F)F)nn2CCN1C(=O)Cc1ccc(OCC[C@@H]2C[C@@H]2C2CCN(c3ncc(Cl)cn3)CC2)cc1F (stereo partly shown) [Example 177],9.22
13,COCc1cnc(N2CCC([C@H]3C[C@H]3CCOc3ccc(CC(=O)N4CCc5nn[nH]c5C4)c(F)c3)CC2)nc1 [Example 57],8.52
14,COCc1cnc(N2CCC([C@H]3C[C@H]3CCOc3ccc(CC(=O)N4CCOCC4)c(F)c3)CC2)nc1 [Example 46],8.74
15,"O=C(Cc1ccc(OCC[C@@H]2C[C@@H]2C2CCN(c3ncc(Cl)cn3)CC2)cc1)N1CCC1 [Example 1, 1-(azetidin-1-yl)-2-[4-(2-{(1S,2R)-2-[1-(5-chloropyrimidin-2-yl)piperidin-4-yl]cyclopropyl}ethoxy)phenyl]ethanone]",9.10
16,CCc1cnc(N2CCC([C@H]3C[C@H]3CCOc3ccc(CC(=O)N4CCC4)c(C)c3)CC2)nc1 [Example 16],8.96
17,COCc1cnc(N2CCC([C@H]3C[C@H]3CCOc3ccc(CC(=O)N4CC(O)C4)c(F)c3)CC2)nc1 [Example 42],8.47
18,COc1cnc(N2CCC([C@H]3C[C@H]3CCOc3cc(F)c(CC(=O)N4CC(F)(F)C4)c(F)c3)CC2)nc1 [Example 217],10.15
19,COCc1cnc(N2CCC([C@H]3C[C@H]3CCOc3ccc(CC(=O)N4CCc5nc(C)oc5C4)c(F)c3)CC2)nc1 [Example 58],8.92
20,COc1cnc(N2CCC([C@H]3C[C@H]3CCOc3cc(F)c(CC(=O)N4CC(OC)C4)c(F)c3)CC2)nc1 [Example 211],9.96
21,COc1cnc(N2CCC([C@H]3C[C@H]3CCOc3cc(F)c(CC(=O)N4CCOCC4)c(F)c3)CC2)nc1 [Example 215],9.54
22,CCOc1cnc(N2CCC([C@H]3C[C@H]3CCOc3cc(F)c(CC(=O)N4CC(C)(O)C4)c(F)c3)CC2)nc1 [Example 233],9.18
23,CCOc1cnc(N2CCC([C@H]3C[C@H]3CCOc3cc(F)c(CC(=O)N4CC(OC)C4)c(F)c3)CC2)nc1 [Example 236],9.92
24,O=C(Cc1ccc(OCC[C@@H]2C[C@@H]2C2CCN(c3ncc(Cl)cn3)CC2)nc1)N1CCC1 [Example 242],8.03
25,CCc1cnc(N2CCC([C@H]3C[C@H]3CCOc3ccc(CC(=O)N4CCC4)c(C#N)c3)CC2)nc1 [Example 24],9.40
26,COCc1cnc(N2CCC([C@H]3C[C@H]3CCOc3ccc(CC(=O)N4CC(O)C4)c(Cl)c3)CC2)nc1 [Example 29],8.62
27,"COCc1cnc(N2CCC([C@H]3C[C@H]3CCOc3ccc(Cc4nncs4)c(F)c3)CC2)nc1 [Example 248, 2-[4-((1R,2S)-2-{2-[3-fluoro-4-(1,3,4-thiadiazol-2-ylmethyl)phenoxy]ethyl}cyclopropyl)piperidin-1-yl]-5-(methoxymethyl)pyrimidine]",8.38
28,O=C(c1cn2c(n1)CN(C(=O)Cc1ccc(OCC[C@@H]3C[C@@H]3C3CCN(c4ncc(Cl)cn4)CC3)cc1F)CC2)C1CC1 [Example 144],8.14

# Further lines, results first:
row,pEC50,SMILES
1,9.00,O=C(Cc1ccc(OCC[C@@H]2C[C@@H]2C2CCN(c3ncc(Cl)cn3)CC2)cc1F)N1Cc2cn[nH]c2C1 [Example 120]
2,8.03,CN(CC(C)(C)C)C(=O)Cc1ccc(OCC[C@@H]2C[C@@H]2C2CCN(c3ncc(Cl)cn3)CC2)cc1F [Example 168]
3,8.89,CN(C(=O)Cc1ccc(OCC[C@@H]2C[C@@H]2C2CCN(c3ncc(Cl)cn3)CC2)cc1F)C1CCS(=O)(=O)C1 (stereo partly shown) [Example 162]
4,8.77,CCOC(=O)CN(C)C(=O)Cc1ccc(OCC[C@@H]2C[C@@H]2C2CCN(c3ncc(Cl)cn3)CC2)cc1F [Example 171]
5,8.82,CC(F)(F)CNC(=O)Cc1ccc(OCC[C@@H]2C[C@@H]2C2CCN(c3ncc(Cl)cn3)CC2)cc1F [Example 105]
6,8.40,CC1(NC(=O)Cc2ccc(OCC[C@@H]3C[C@@H]3C3CCN(c4ncc(Cl)cn4)CC3)cc2F)CCC1 [Example 92]
7,9.32,COc1cnc(N2CCC([C@H]3C[C@H]3CCOc3ccc(CC(=O)N4CC(F)C4)c(F)c3)CC2)nc1 [Example 39]
8,8.70,CC(C)CN(C)C(=O)Cc1ccc(OCC[C@@H]2C[C@@H]2C2CCN(c3ncc(Cl)cn3)CC2)cc1F [Example 166]
9,8.10,O=C(Cc1ccc(OCC[C@@H]2C[C@@H]2C2CCN(c3ncc(Cl)cn3)CC2)cc1F)N1CCCc2ncccc21 [Example 131]
10,9.04,O=C(Cc1ccc(OCC[C@@H]2C[C@@H]2C2CCN(c3ncc(Cl)cn3)CC2)cc1F)N1CCn2c(nnc2C(F)(F)F)C1 [Example 133]
11,8.36,COCc1cnc(N2CCC([C@H]3C[C@H]3CCOc3ccc(CC(=O)N(C)C4CC4)c(F)c3)CC2)nc1 [Example 55]
12,8.29,CC1(CNC(=O)Cc2ccc(OCC[C@@H]3C[C@@H]3C3CCN(c4ncc(Cl)cn4)CC3)cc2F)CCC1 [Example 96]
13,8.21,O=C(Cc1ccc(OCC[C@@H]2C[C@@H]2C2CCN(c3ncc(Cl)cn3)CC2)cc1F)NCC1CCCCC1 [Example 112]
14,8.04,CCN(CC)C(=O)Cc1ccc(OCC[C@@H]2C[C@@H]2C2CCN(c3ncc(Cl)cn3)CC2)cc1F [Example 98]
15,8.49,Cc1n[nH]c2c1CN(C(=O)Cc1ccc(OCC[C@@H]3C[C@@H]3C3CCN(c4ncc(Cl)cn4)CC3)cc1F)CC2 [Example 140]
16,8.12,"CC(C)(O)c1cnc(N2CCC([C@H]3C[C@H]3CCOc3ccc(CC(=O)N4CCC4)c(F)c3)CC2)nc1 [Example 205, 1-(azetidin-1-yl)-2-(2-fluoro-4-{2-[(1S,2R)-2-{1-[5-(2-hydroxypropan-2-yl]pyrimidin-2-yl]piperidin-4-yl}cyclopropyl]ethoxy}phenyl)ethanone]"
17,9.21,O=C(Cc1ccc(OCC[C@@H]2C[C@@H]2C2CCN(c3ncc(Cl)cn3)CC2)cc1F)N1CCCC1 [Example 85]
18,8.66,COc1cnc(N2CCC([C@H]3C[C@H]3CCOc3ccc(CC(=O)N4CC(C)(O)C4)c(F)c3)CC2)nc1 [Example 35]
19,8.92,O=C(Cc1ccc(OCC[C@@H]2C[C@@H]2C2CCN(c3ncc(Cl)cn3)CC2)cc1F)N1CC(F)(F)C1 [Example 71]
20,8.14,CC1CCC(C)N1C(=O)Cc1ccc(OCC[C@@H]2C[C@@H]2C2CCN(c3ncc(Cl)cn3)CC2)cc1F (stereo partly shown) [Example 90]
21,8.43,CN(CC(N)=O)C(=O)Cc1ccc(OCC[C@@H]2C[C@@H]2C2CCN(c3ncc(Cl)cn3)CC2)cc1F [Example 159]
22,9.17,O=C(Cc1ccc(OCC[C@@H]2C[C@@H]2C2CCN(c3ncc(Cl)cn3)CC2)cc1F)N1CC(O)(C(F)(F)F)C1 [Example 67]
23,8.43,CC1(NC(=O)Cc2ccc(OCC[C@@H]3C[C@@H]3C3CCN(c4ncc(Cl)cn4)CC3)cc2F)CC1 [Example 93]
24,8.57,C[C@H]1CCCN1C(=O)Cc1ccc(OCC[C@@H]2C[C@@H]2C2CCN(c3ncc(Cl)cn3)CC2)cc1F [Example 73]
